Measurements published in US12582641B2, “Sulfur-containing compound based on glutarimide skeleton and application thereof” (SHANGHAITECH UNIVERSITY, priority 2019, dated 2026).

test system: MM.1S cells; experiment: Proliferation inhibition (IC50) in MM.1S cells, cell viability assay; settings: Homo sapiens, MM1.S, 72 h, read-out: IC50 (nM), proliferation inhibitory activity of MM.1S cells (half inhibitory concentration)

Question: How did the IC50 turn out when `O=C1CCC(N2Cc3c(SCCc4ccc(CNC5CCCCC5)cc4)cccc3C2=O)C(=O)N1` (stereo not drawn) [SIAIS1227007, 3-(4-((4-((cyclohexylamino)methyl)phenethyl)thio)-1-oxoisoindolin-2-yl)piperidine-2,6-dione] was run?
Answer: Its IC50 is 0.67 ± 0.27 nM.

Question: How did the IC50 turn out when `CC1(C)CCC(NCCc2ccc(CSc3cccc4c3CN(C3CCC(=O)NC3=O)C4=O)cc2)CC1` (stereo not drawn) [SIAIS1227103, 3-(4-((4-(2-((4,4-dimethylcyclohexyl)amino)ethyl)benzyl)thio)-1-oxoisoindolin-2-yl)piperidine-2,6-dione] was run?
Answer: Its IC50 is 0.02 nM.

Question: `O=C1CCC(N2Cc3c(SCc4ccc(CN5CCOCC5)cc4F)cccc3C2=O)C(=O)N1` (stereo not drawn) [SIAIS1227181, 3-(4-((2-fluoro-4-(morpholinomethyl)benzyl)thio)-1-oxoisoindolin-2-yl)piperidine-2,6-dione] was tested. Which IC50 did it give?
Answer: The IC50 was 0.113 nM.

Question: `CCN(CC)CCCCCCCCCSc1cccc2c1CN(C1CCC(=O)NC1=O)C2=O` (stereo not drawn) [SIAIS1220067, 3-(4-((9-(diethylamino)nonyl)thio)-1-oxoisoindolin-2-yl)piperidine-2,6-dione] was tested. Which IC50 did it give?
Answer: Its IC50 is 0.25 nM.

Question: For `O=C1CCC(N2Cc3c(SCCCCCCCCN4CCNCC4)cccc3C2=O)C(=O)N1` (stereo not drawn) [SIAIS1216145, 3-(1-oxo-4-((8-(piperazin-1-yl)octyl)thio)isoindolin-2-yl)piperidine-2,6-dione], which IC50 is on record?
Answer: Its IC50 is 3.86 ± 0.87 nM.

Question: How did the IC50 turn out when `O=C1CCC(N2Cc3c(SCc4nc(CN5CCCCC5)cs4)cccc3C2=O)C(=O)N1` (stereo not drawn) [SIAIS313170, 3-(1-oxo-4-(((4-(piperidin-1-ylmethyl)thiazol-2-yl)methyl)thio)isoindolin-2-yl)piperidine-2,6-dione] was run?
Answer: Its IC50 is 2.56 ± 0.56 nM.

Question: With `CN(CCCCCCCSc1cccc2c1CN(C1CCC(=O)NC1=O)C2=O)C1CCC(C)(C)CC1` (stereo not drawn) [SIAIS1221125, 3-(4-((7-((4,4-dimethylcyclohexyl)(methyl)amino)heptyl)thio)-1-oxoisoindolin-2-yl)piperidine-2,6-dione] as the compound, how does the IC50 read?
Answer: The IC50 was 0.035 nM.

Question: `CC[N+](CC)(CC)CCCCCCCCSc1cccc2c1CN(C1CCC(=O)NC1=O)C2=O` (stereo not drawn) [SIAIS1220093, 8-((2-(2,6-dioxopiperidin-3-yl)-1-oxoisoindolin-4-yl)thio)-N,N,N-triethyloctan-1-aminium chloride] was tested. Which IC50 did it give?
Answer: The IC50 was 8.2 nM.

Question: `O=C1CCC(N2Cc3c(SCc4cc(Br)c(CNC5CCCCC5)cc4Br)cccc3C2=O)C(=O)N1` (stereo not drawn) [SIAIS1227141, 3-(4-((2,5-dibromo-4-((cyclohexylamino)methyl)benzyl)thio)-1-oxoisoindolin-2-yl)piperidine-2,6-dione] was tested. Which IC50 did it give?
Answer: The IC50 was 4.98 ± 0.99 nM.

Question: For `CN1CCCN(CCCCCCCCSc2cccc3c2CN(C2CCC(=O)NC2=O)C3=O)CC1` (stereo not drawn) [SIAIS1220051, 3-(4-((8-(4-methyl-1,4-diazepan-1-yl)octyl)thio)-1-oxoisoindolin-2-yl)piperidine-2,6-dione], which IC50 is on record?
Answer: Its IC50 is 0.75 nM.

Question: For `O=C1CCC(N2Cc3c(SCc4ccc(CNC5CCCC5)o4)cccc3C2=O)C(=O)N1` (stereo not drawn) [SIAIS313148, 3-(4-(((5-((cyclopentylamino)methyl)furan-2-yl)methyl)thio)-1-oxoisoindolin-2-yl)piperidine-2,6-dione], which IC50 is on record?
Answer: Its IC50 is 0.95 ± 0.45 nM.

Question: How did the IC50 turn out when `CN1CCN(Cc2ccc(CSc3cccc4c3CN(C3CCC(=O)NC3=O)C4=O)cc2)CC1` (stereo not drawn) [SIAIS1227169, 3-(4-((4-((4-methylpiperazin-1-yl)methyl)benzyl)thio)-1-oxoisoindolin-2-yl)piperidine-2,6-dione] was run?
Answer: Its IC50 is 0.12 nM.

Question: `O=C1CCC(N2Cc3c(SCc4ccc(CCNC5CCCCC5)cc4)cccc3C2=O)C(=O)N1` (stereo not drawn) [SIAIS1224155, 3-(4-((4-(2-(cyclohexylamino)ethyl)benzyl)thio)-1-oxoisoindolin-2-yl)piperidine-2,6-dione] was tested. Which IC50 did it give?
Answer: The IC50 was 0.021 ± 0.004 nM.

Question: How did the IC50 turn out when `O=C1CCC(N2Cc3c(SCCCCCCCN[C@@H]4CN5CCC4CC5)cccc3C2=O)C(=O)N1` (stereo partly drawn) [SIAIS1224035, 3-(1-oxo-4-((7-(((S)-quinuclidin-3-yl)amino)heptyl)thio)isoindolin-2-yl)piperidine-2,6-dione] was run?
Answer: The IC50 was 15.1 nM.

Question: Which IC50 does the source give for `O=C1CCC(N2Cc3c(SCc4ccc(CCN5CCCCC5)cc4)cccc3C2=O)C(=O)N1` (stereo not drawn) [SIAIS1224153, 3-(1-oxo-4-((4-(2-(piperidin-1-yl)ethyl)benzyl)thio)isoindolin-2-yl)piperidine-2,6-dione] here?
Answer: The IC50 was 0.024 ± 0.002 nM.

Question: `CCCCCSc1cccc2c1CN(C1CCC(=O)NC1=O)C2=O` (stereo not drawn) [SIAIS1213195, 3-(1-oxo-4-(pentylthio)isoindolin-2-yl)piperidine-2,6-dione] was tested. Which IC50 did it give?
Answer: The IC50 was 1.48 ± 0.06 nM.

Question: Which IC50 does the source give for `O=C1CCC(N2Cc3c(SCCCCCCCN4Cc5ccccc5C4)cccc3C2=O)C(=O)N1` (stereo not drawn) [SIAIS1224033, 3-(4-((7-(isoindolin-2-yl)heptyl)thio)-1-oxoisoindolin-2-yl)piperidine-2,6-dione] here?
Answer: Its IC50 is 0.082 nM.

Question: `O=C1CCC(N2C(=O)c3cccc(SCCc4ccc(CN5CCCCC5)cc4)c3C2=O)C(=O)N1` (stereo not drawn) [SIAIS1224163, 2-(2,6-dioxopiperidin-3-yl)-4-((4-(piperidin-1-ylmethyl)phenethyl)thio)isoindoline-1,3-dione] was tested. Which IC50 did it give?
Answer: Its IC50 is 7.41 nM.

Question: How did the IC50 turn out when `CN(CCCCCCCSc1cccc2c1CN(C1CCC(=O)NC1=O)C2=O)c1ccccc1` (stereo not drawn) [SIAIS1220189, 3-(4-((7-(methyl(phenyl)amino)heptyl)thio)-1-oxoisoindolin-2-yl)piperidine-2,6-dione] was run?
Answer: The IC50 was 0.553 nM.

Question: How did the IC50 turn out when `O=C1CCC(N2Cc3c(SCc4ccc(CNC5CC6(CCC6)C5)cc4)cccc3C2=O)C(=O)N1` (stereo not drawn) [SIAIS1222159, 3-(1-oxo-4-((4-((spiro[3.3]heptan-2-ylamino)methyl)benzyl)thio)isoindolin-2-yl)piperidine-2,6-dione] was run?
Answer: The IC50 was 0.05 nM.

Question: Which IC50 does the source give for `O=C1CCC(N2Cc3c(SCc4ccc(CN(C5CCCCC5)C5CCCCC5)cc4)cccc3C2=O)C(=O)N1` (stereo not drawn) [SIAIS1227059, 3-(4-((4-((dicyclohexylamino)methyl)benzyl)thio)-1-oxoisoindolin-2-yl)piperidine-2,6-dione] here?
Answer: Its IC50 is 0.022 nM.

Question: How did the IC50 turn out when `O=C1CCC(N2Cc3c(SCCCCCCNC(=O)C45CC6CC(CC(Cl)(C6)C4)C5)cccc3C2=O)C(=O)N1` (stereo not drawn) [SIAIS1222145, 3-chloro-N-(6-((2-(2,6-dioxopiperidin-3-yl)-1-oxoisoindolin-4-yl)thio)hexyl)adamantane-1-carboxamide] was run?
Answer: The IC50 was 0.043 nM.

Question: `CNCCCCCCCCSc1cccc2c1CN(C1CCC(=O)NC1=O)C2=O` (stereo not drawn) [SIAIS1216151, 3-(4-((8-(methylamino)octyl)thio)-1-oxoisoindolin-2-yl)piperidine-2,6-dione] was tested. Which IC50 did it give?
Answer: Its IC50 is 0.33 ± 0.15 nM.

Question: With `O=C1CCC(N2Cc3c(SCc4ccc(CNC5CCCCC5)cc4F)cccc3C2=O)C(=O)N1` (stereo not drawn) [SIAIS1227177, 3-(4-((4-((cyclohexylamino)methyl)-2-fluorobenzyl)thio)-1-oxoisoindolin-2-yl)piperidine-2,6-dione] as the compound, how does the IC50 read?
Answer: The IC50 was 0.097 nM.

Question: How did the IC50 turn out when `O=C1CCC(N2Cc3c(SCCCCCCCN4C[C@H]5CCCC[C@H]5C4)cccc3C2=O)C(=O)N1` (stereo partly drawn) [SIAIS1222107, 3-(4-((7-((3aR,7aS)-hexahydro-1H-isoindol-2(3H)-yl)heptyl)thio)-1-oxoisoindolin-2-yl)piperidine-2,6-dione] was run?
Answer: Its IC50 is 0.05 nM.

Question: With `O=C1CCC(N2Cc3c(SCCCO)cccc3C2=O)C(=O)N1` (stereo not drawn) [SIAIS1216189, 3-(4-((3-hydroxypropyl)thio)-1-oxoisoindolin-2-yl)piperidine-2,6-dione] as the compound, how does the IC50 read?
Answer: The IC50 was 2.25 nM.

Question: How did the IC50 turn out when `CN(CCCCCCSc1cccc2c1CN(C1CCC(=O)NC1=O)C2=O)CC12CC3CC(CC(C3)C1)C2` (stereo not drawn) [SIAIS1221127, 3-(4-((6-((adamantan-1-ylmethyl)(methyl)amino)hexyl)thio)-1-oxoisoindolin-2-yl)piperidine-2,6-dione] was run?
Answer: Its IC50 is 0.059 nM.
